Reference: patent US8822520B2, “Substituted bicyclic HCV inhibitors” (Presidio Pharmaceuticals, Inc., priority 2010, dated 2014)

test system: HCV genotype 1b replicon in Huh 7 cells (HCV 1b_Huh-Luc/Neo-ET cell line); experiment: HCV replicon assay (luciferase readout); format: cell-based; settings: Hepatitis C virus, Huh-7, 72 h, read-out: Inhibition of HCV genotype lb
Experimental: Biological activity of the compounds of the invention was determined using an HCV replicon assay. The HCV 1b_Huh-Luc/Neo-ET cell line persistently expressing a bicistronic genotype 1b replicon in Huh 7 cells was obtained from ReBLikon GMBH. This cell line was used to test compound inhibition using luciferase enzyme activity readout as a measurement of compound inhibition of replicon levels.
On Day 1 (the day after plating cells), each compound is added in triplicate to the cells. Plates are incubated for 72 h prior to determining luciferase levels. Enzyme activity was measured using a Bright-Glo Kit (cat. number E2620) manufactured by Promega Corporation. The following equation was used to generate a percent control value for each compound. % Control=(Compound Luciferase Level/Control Luciferase Level)*100
The EC50 value was determined using GraphPad Prism and the following equation: Y=Bottom asymptote+(Top asymptote−Bottom asymptote)/(1+10^((Log EC50−X)*HillSlope))
EC50 values of compounds are determined several times in the replicon assay to generate average EC50 values.

SMILES	EC50 [nM]
COCCOc1cc(-c2cnc([C@@H]3CCCN3C(=O)[C@@H](NC(=O)OC)C(C)C)[nH]2)ccc1-c1ccc(-c2cnc([C@@H]3CCCN3C(=O)[C@@H](c3ccccc3)N(C)C)[nH]2)cc1OCCOC [Compound 90]	1 to 9.9
CNC(=O)N[C@@H](C(=O)N1CCC[C@H]1c1ncc(-c2ccc(-c3ccc(-c4cnc([C@@H]5CCCN5C(=O)[C@H](NC(=O)NC)c5ccccc5)[nH]4)cc3OCCOC)c(OCCOC)c2)[nH]1)c1ccccc1 [Compound 85]	1 to 9.9
COCCOc1cc(-c2cnc([C@@H]3CCCN3C(=O)[C@@H](NC(=O)OC)C3CCOCC3)[nH]2)ccc1-c1ccc(-c2cnc([C@@H]3CCCN3C(=O)[C@@H](NC(=O)OC)C3CCOCC3)[nH]2)cc1OCCOC [Compound 77]	1 to 9.9
COCCOc1cc(-c2cnc([C@@H]3CCCN3C(=O)[C@@H](NC(=O)OC)C(C)C)[nH]2)ccc1-c1ccc(-c2cnc([C@@H]3CCCN3C(=O)[C@H](NC(=O)OC)c3cccs3)[nH]2)cc1OCCOC [Compound 89]	< 1
COCCOc1cc(-c2ccc(-c3cnc([C@@H]4CCCN4C(=O)[C@@H](NC(=O)OC)C(C)C)[nH]3)cc2)ccc1-c1cnc([C@@H]2CCCN2C(=O)[C@@H](NC(=O)OC)C(C)C)[nH]1 [Compound 53]	< 1
COCCOc1cc(-c2cnc([C@@H]3CCCN3C(=O)[C@H](NC(C)=O)c3ccccc3)[nH]2)ccc1-c1ccc(-c2cnc([C@@H]3CCCN3C(=O)[C@H](NC(C)=O)c3ccccc3)[nH]2)cc1OCCOC [Compound 83]	1 to 9.9
COC(=O)N[C@H](C(=O)N1CCC[C@H]1c1ncc(-c2ccc(-c3ccc(-c4cnc([C@@H]5CCCN5C(=O)[C@@H](NC(=O)OC)C(C)C)[nH]4)c4c3OCCOCCOCCO4)cc2)[nH]1)C(C)C [Compound 80]	< 1
COCCOc1cc(-c2cnc([C@@H]3CCCN3C(=O)[C@@H](c3ccccc3)N3CCCC3)[nH]2)ccc1-c1ccc(-c2cnc([C@@H]3CCCN3C(=O)[C@@H](c3ccccc3)N3CCCC3)[nH]2)cc1OCCOC [Compound 82]	1 to 9.9
COCCOc1cc(-c2cnc([C@@H]3CCCN3C(=O)[C@@H](NC(=O)OC)C(C)C)[nH]2)ccc1-c1ccc(-c2cnc([C@@H]3CCCN3C(=O)[C@@H](NC(=O)OC)C(C)C)[nH]2)c(OCCOC)c1 [Compound 51]	< 1
COCCOc1cc(-c2cnc([C@@H]3CCCN3C(=O)[C@@H](NC(=O)OC)C(C)C)[nH]2)c(OCCOC)cc1-c1ccc(-c2cnc([C@@H]3CCCN3C(=O)[C@@H](NC(=O)OC)C(C)C)[nH]2)cc1 [Compound 55]	< 1
COCCOc1cc(-c2cnc([C@@H]3CCCN3C(=O)[C@H](COC)NC(=O)OC)[nH]2)ccc1-c1ccc(-c2cnc([C@@H]3CCCN3C(=O)[C@@H](NC(=O)OC)C(C)C)[nH]2)cc1OCCOC [Compound 87]	1 to 9.9
COCCOc1cc(-c2cnc([C@@H]3CCCN3C(=O)[C@H](NC(=O)OC)c3ccsc3)[nH]2)ccc1-c1ccc(-c2cnc([C@@H]3CCCN3C(=O)[C@H](NC(=O)OC)c3ccsc3)[nH]2)cc1OCCOC [Compound 78]	1 to 9.9
COCCOc1cc(-c2cnc([C@@H]3CCCN3C(=O)[C@@H](c3ccccc3)N(C)C)[nH]2)ccc1-c1ccc(-c2cnc([C@@H]3CCCN3C(=O)[C@@H](c3ccccc3)N(C)C)[nH]2)cc1OCCOC [Compound 81]	1 to 9.9

same assay, conditions: Hepatitis C virus, Huh-7; Table 1; EC50 range class; replicon luciferase, 72 h incubation, average EC50; read-out: Inhibition of HCV genotype 1b

SMILES	EC50 [nM]
COCCOc1c(-c2ccc(-c3cnc([C@@H]4CCCN4C(=O)[C@@H](NC(=O)OC)C(C)C)[nH]3)cc2)ccc(-c2cnc([C@@H]3CCCN3C(=O)[C@H](NC(=O)OC)c3cccs3)[nH]2)c1OCCOC [Compound 32]	< 1
COCCOc1c(-c2ccc(-c3cnc([C@@H]4CCCN4C(=O)[C@@H](c4ccccc4)N4CCCC4)[nH]3)cc2)ccc(-c2cnc([C@@H]3CCCN3C(=O)[C@@H](c3ccccc3)N3CCCC3)[nH]2)c1OCCOC [Compound 16]	1 to 9.9
COCCOc1c(-c2ccc(-c3cnc([C@@H]4CCCN4C(=O)[C@@H](NC(=O)OC)C(C)C)[nH]3)cc2)ccc(-c2cnc([C@@H]3CCCN3C(=O)[C@@H](NC(=O)OC)C(C)C)[nH]2)c1OCCOC [Compound 2]	< 1
COCCOc1cc(-c2cnc([C@@H]3CCCN3C(=O)[C@@H](NC(=O)OC)C(C)C)[nH]2)ccc1-c1ccc(-c2cnc([C@@H]3CCCN3C(=O)[C@@H](c3ccccc3)N3CCCC3)[nH]2)cc1OCCOC [Compound 38]	1 to 9.9
COCCOc1c(-c2ccc(-c3cnc([C@@H]4CCCN4C(=O)C(NC(=O)OC)[C@@H](C)OC)[nH]3)cc2)ccc(-c2cnc([C@@H]3CCCN3C(=O)C(NC(=O)OC)[C@@H](C)OC)[nH]2)c1OCCOC (stereo partly drawn) [Compound 12]	1 to 9.9
COCCOc1c(-c2ccc(-c3cnc([C@@H]4CCCN4C(=O)[C@@H](NC(=O)OC)C(C)C)[nH]3)cc2)ccc(-c2cnc([C@@H]3CCCN3C(=O)[C@@H](NC(=O)OC)[C@@H](C)OC)[nH]2)c1OCCOC [Compound 28]	< 1
COCCOc1c(-c2ccc(-c3cnc([C@@H]4CCCN4C(=O)[C@@H](NC(=O)OC)C(C)(C)C)[nH]3)cc2)ccc(-c2cnc([C@@H]3CCCN3C(=O)[C@@H](NC(=O)OC)C(C)(C)C)[nH]2)c1OCCOC [Compound 13]	1 to 9.9
COCCOc1c(-c2ccc(-c3cnc([C@@H]4COCCN4C(=O)[C@@H](NC(=O)OC)C(C)C)[nH]3)cc2)ccc(-c2cnc([C@@H]3CCCN3C(=O)[C@@H](NC(=O)OC)C(C)C)[nH]2)c1OCCOC [Compound 40]	1 to 9.9
CC[C@H](C)C(NC(=O)OC)C(=O)N1CCC[C@H]1c1ncc(-c2ccc(-c3ccc(-c4cnc([C@@H]5CCCN5C(=O)C(NC(=O)OC)[C@@H](C)CC)[nH]4)cc3OCCOC)c(OCCOC)c2)[nH]1 (stereo partly drawn) [Compound 7]	< 1
COCCOc1c(-c2ccc(-c3cnc([C@@H]4CCCN4C(=O)[C@@H](NC(=O)OC)C(C)C)[nH]3)cc2)ccc(-c2cnc([C@@H]3CCCN3C(=O)[C@H](NC(=O)OC)c3ccsc3)[nH]2)c1OCCOC [Compound 31]	< 1
COCCOc1c(-c2ccc(-c3cnc([C@@H]4CCCN4C(=O)[C@@H](NC(=O)OC)C(C)C)[nH]3)cc2)ccc(-c2cnc([C@@H]3CCCN3C(=O)[C@H](NC(=O)OC)c3ccccc3)[nH]2)c1OCCOC [Compound 30]	< 1
COCCOc1c(-c2ccc(-c3cnc([C@@H]4CSCN4C(=O)[C@@H](NC(=O)OC)C(C)C)[nH]3)cc2)ccc(-c2cnc([C@@H]3CCCN3C(=O)[C@@H](NC(=O)OC)C(C)C)[nH]2)c1OCCOC [Compound 41]	1 to 9.9
COCCOc1c(-c2ccc(-c3cnc([C@@H]4CCCN4C(=O)[C@H](NC(C)=O)c4ccccc4)[nH]3)cc2)ccc(-c2cnc([C@@H]3CCCN3C(=O)[C@H](NC(C)=O)c3ccccc3)[nH]2)c1OCCOC [Compound 23]	< 1
CC[C@H](C)[C@H](NC(=O)OC)C(=O)N1CCC[C@H]1c1ncc(-c2ccc(-c3ccc(-c4cnc([C@@H]5CCCN5C(=O)[C@@H](NC(=O)OC)C(C)C)[nH]4)cc3OCCOC)c(OCCOC)c2)[nH]1 [Compound 35]	< 1
COCCOc1c(-c2ccc(-c3cnc([C@@H]4CCCN4C(=O)[C@@H](NC(=O)OC)C(C)C)[nH]3)cc2)ccc(-c2cnc([C@@H]3CCCN3C(=O)[C@H](COC)NC(=O)OC)[nH]2)c1OCCOC [Compound 27]	< 1
COCCOc1cc(-c2cnc([C@@H]3CCCN3C(=O)[C@@H](NC(=O)OC)C(C)C)[nH]2)ccc1-c1ccc(-c2cnc([C@@H]3CCCN3C(=O)[C@@H](NC(=O)OC)C(C)C)[nH]2)cc1OCCOC [Compound 1]	< 1
COCCOc1c(-c2ccc(-c3cnc([C@@H]4CCCN4C(=O)[C@@H](NC(=O)OC)C(C)C)[nH]3)cc2)ccc(-c2cnc([C@@H]3CCCN3C(=O)[C@@H](c3ccccc3)N3CCCC3)[nH]2)c1OCCOC [Compound 45]	< 1
